Each block holds one molecule with its values, some of them ahead of it.
How the values were obtained:
[1] = system: T cells from HLA A0201 donors challenged with peptide-pulsed T2 cells; assay: Gamma interferon ELISPOT of T cells after in vitro stimulation with peptide; assay type: cell-based, human; settings: for immune response (IFN-gamma secretion, ELISPOT) / recognition of the native sequence by T cells elicited with the peptide / immune response as gamma-IFN secretion by CD3+ T cells: healthy HLA A0201 donors; for immune response (IFN-gamma secretion, ELISPOT): second or third round of peptide stimulation, peptide-pulsed T2 targets; for heteroclitic response (ELISPOT) / IFN-γ production (ELISPOT): CD3+ T cells from HLA A0201 donors; for heteroclitic response (ELISPOT): FIGS. 8 and 9; for IFN-γ production (ELISPOT): imatinib resistance-associated peptides, two or three stimulations; for recognition of the native sequence by T cells elicited with the peptide: T2 pulsed with native peptide; for immune response as gamma-IFN secretion by CD3+ T cells: b2a2-derived peptides, FIG. 4
[2] = molecular target: T1, HLA A0201 molecules (Homo sapiens, UniProt P04439, D140Y/D185E/D98H/E176V/E277Q/G131W/G231S/I119V/I121R/I166T/I218V/L300P/L318F/N151K/N90K/P208A/P217A/Q86G/Q94H/R138H/R169H/T345S); assay: T2 assay for peptide binding to HLA A0201 molecules; settings: T2 cells, FIG. 1
T1 construct: endogenous in cells; host or cells: T2 (174xCEM.T2) human cell line
Procedure: (§1) T2 cells (TAP-, HLA-A0201^+) were incubated overnight at 27° C. at a concentration of 1×10^6 cells/ml in FCS-free RPMI medium supplemented with 5 μg/ml human β2microglobulin (Sigma, St Louis, Mo.) in the absence (negative control) or presence of either a positive reference tyrosinase peptide or test peptides at various final concentrations (50, 10, 1, and 0.1 μg/ml). Following a 4-hour incubation with 5 μg/ml brefeldin A (Sigma), T2 cells were labeled for 30 minutes at 4° C. with a saturating concentration of anti-HLA-A2.1 (BB7.2) monoclonal antibody (mAb), then washed twice. The cells were then incubated for 30 minutes at 4° C. with a saturating concentration of FITC-conjugated goat IgG F(ab′)2 anti-mouse Ig (Caltag, South San Francisco, Calif.), washed twice, fixed in PBS/1% paraformaldehyde and analyzed using a FACS Calibur® cytofluorometer (Becton Dickinson, Immunocytometry systems, San Jose, Calif.).
The mean intensity of fluorescence (MIF) observed for each peptide concentration (after dividing of the MIF observed without peptide) was used as an estimate of peptide binding and expressed as a fluorescence index. Stabilization assays were performed similarly. Following initial evaluation of peptide binding at time 0, cells were washed in RPMI complete medium to remove free peptides and incubated in the continuous presence of 0.5 pg/ml brefeldin-A for 2, 4, 6 or 8 hours. […]

[3] = molecular target: HLA A0201 (Homo sapiens, UniProt P04439, D140Y/D185E/D98H/E176V/E277Q/G131W/G231S/I119V/I121R/I166T/I218V/L300P/L318F/N151K/N90K/P208A/P217A/Q86G/Q94H/R138H/R169H/T345S); assay: BIMAS predicted score for binding to HLA A0201; settings: analogue versus native CMLA2
Procedure: Peptides with potential CTL epitopes can be predicted by means of a peptide library-based scoring system for MHC class I-binding peptides. AA sequences of the human b3a2 and b2a2 fusion proteins were scanned for peptides with potential binding capacity for HLA A0201, a subtype encompassing 95% of the HLA-A02 allele. HLA-A0201 is expressed in about 40% of the Caucasian population.
Substitutions were determined using the software of the Bioinformatics & Molecular Analysis Section (National Institutes of Health, Washington, D.C.) (Parker K C, et al. J Immunol 1994;152(1):163-75; available at http://bimas.dcrt.nih.gov/cgi-bin/molbio/ken_parker_comboform), which ranks 9-mer or 10-mer peptides on a predicted half life dissociation coefficient from HLA class I molecules. Several analogue peptides were designed whereby one or both anchor amino acids or additional amino acids adjacent to anchor amino acids were modified. […] All the native peptides were predicted to have a half life of less than one minute. Most substitutions affected the primary or secondary anchor motifs (leucine in position 2 or valine in position 9 or 6) but in some cases, a tyrosine was substituted in position 1. […] Also depicted in Table 1 are the predicted half lives according to another software program, […] (Rammensee H G, et al., Immunogenetics 1995; 41(4): 178-228; available at http://syfpeithi.bmi-heidelberg.com).

[4] = system: T2 cells pulsed with peptide; assay: Chromium-51 release cytotoxicity assay with peptide-stimulated T cells; assay type: cell-based, human; settings: for killing of cells expressing the native peptide: T cell lines after several stimulations with the heteroclitic peptide; for killing of T2 cells pulsed with the heteroclitic peptide: T cell lines after several stimulations, no lysis of T2 without peptide or with control peptide; for killing of T2 cells pulsed with kinase mutant sequence peptides: T cells generated by several stimulations with the peptide, not with control peptide or no peptide
Procedure: T lymphocytes were isolated from the same donors by use of negative selection by depletion with an anti-CD11b, anti-CD56 and CD19 MAb (Miltenyi, CA). A total of 1×10^6 pure T lymphocytes were cultured with 1×10^5 autologous DC in RPMI 1640 medium supplemented with 5% heat-inactivated human autologous plasma with bcr-abl synthetic peptides at a concentration of 10 μg/mL and β2 microglobulin at 2 μg/ml in 24-well plates in the presence of 5-10 ng/mL recombinant human IL-7 (Genzyme) and 0.1 ng/ml IL-12. After culture for 3 days 20 U/ml of IL-2 was added. After 10 days, 1×10^6 cells were stimulated again by adding 2×10^5 autologous, magnetically isolated CD14^+ monocytes together with 10 ng/ml of IL-7 and 20 U/ml IL-2 and peptide at a concentration of […]. In some cases, as indicated, after culture for another 7 days, the cells were stimulated a third time, in the same manner. After the second or third stimulation, CD8 T cells were magnetically isolated and cytotoxicity and gamma-IFN (interferon) secretion of these cells was then examined.
The presence of specific CTLs was measured in a standard 4 h-chromium release assay as follows. 4×10^6 targets were labeled with 300 μCi of Na2 ^51CrO+ (NEN Life Science Products, Inc. Boston, Mass.) for 1 hour at 37° C. After washing, cells at 2×10^6/ml concentration were incubated with or without synthetic peptides at a concentration of 10 μg/ml for 2 h at 20° C. in presence of β2 microglobulin at 3 μg/ml. After washing by centrifugation, target cells were resuspended in complete media at 5×10^4 cells per ml and plated in a 96 well U-bottom plate (Becton Dickinson®, NY) at 5×10^3 cells per well with effector cells at effector to target (E/T) ratios ranging from 100:1 to 10:1. Plates were incubated for 5 hours at 37° C. in 5% CO2. Supernatant fluids were harvested and radioactivity was measured -in a gamma counter. Percent specific lysis was determined from the following formula: 100× [(experimental release−spontaneous release)/(maximum release−spontaneous release)]. Maximum release was determined by lysis of targets in 2.5% Triton X-100.
In order to determine whether the in vitro-generated T cells were capable of cytolysis, T cell lines obtained after several stimulations with p210C and b2a2A3 were assayed by chromium-51 release assays using peptide pulsed target cell lines.

[5] = molecular target: T2, HLA-A0201 molecule on T2 cells (TAP-, HLA-A0201+) (human); assay: T2 binding and stabilization assay, flow cytometry with BB7.2
T2 construct: Empty, thermolabile HLA-A0201 on live T2 cells; also called HLA-A2.1
Procedure: as §1, with “HLA-A0201⁺)” for “HLA-A0201^+)”, “1×10⁶” for “1×10^6”, “β₂microglobulin” for “β2microglobulin”
The mean intensity of fluorescence (MIF) observed for each peptide concentration (after dividing of the MIF observed without peptide) was used as an estimate of peptide binding and expressed as a fluorescence index. Stabilization assays were performed similarly. Following initial evaluation of peptide binding at time 0, cells were washed in RPMI complete medium to remove free peptides and incubated in the continuous presence of 0.5 pg/ml brefeldin-A for 2, 4, 6 or 8 hours.
For peptides to be immunogenic, in an MHC class I-restricted context, they require the capacity to bind and stabilize MHC class I molecules on the live cell surface. Since the computer prediction models above have 60-80% predictive accuracy, direct measurement of the strength of the interaction between the peptides and the HLA-A0201 molecule was performed, with a conventional binding and stabilization assay that uses the antigen-transporting deficient (TAP2 negative) HLA-A0201 human T2 cells.

[6] = molecular target: T2, HLA-A0201 molecule on T2 cells (TAP-, …); assay: T2 assay, referred to in the ELISPOT example

Molecule: TLFKQSSKV (listed as Homo sapiens) [p210D]
immune response (IFN-gamma secretion, ELISPOT) [1]: produced an immune response in some donors tested

Molecule: YIIIEFMTYV (listed as Homo sapiens) [T3B2]
heteroclitic response (ELISPOT) [1]: stimulated heteroclitic responses

binding to HLA A0201 in the T2 assay [2]: weak MHC binder
Molecule: SSKALQRPV (listed as Homo sapiens) [CMLA2, native b3a2 breakpoint peptide, previously described]

Molecule: KLSSKALQV (listed as Homo sapiens) [p210B]
immune response (IFN-gamma secretion, ELISPOT) [1]: no immune response

Molecule: YLGGGQFGV (listed as Homo sapiens) [V2A2]
IFN-γ production (ELISPOT) [1]: greater IFN-γ production following a second stimulation
recognition of the native sequence by T cells elicited with the peptide [1]: recognized native sequences

binding to HLA A0201 in the T2 assay [2]: high avidity
increase of BIMAS prediction [3]: 700 fold
Molecule: YLKALQRPV (listed as Homo sapiens) [p210F]
recognition of the native sequence by T cells elicited with the peptide [1]: able to recognize their respective native sequences
immune response (IFN-gamma secretion, ELISPOT) [1]: most consistent and significant immune-responses

Molecule: YLINKVEAL (listed as Homo sapiens) [b2a2 A5]
immune response as gamma-IFN secretion by CD3+ T cells [1]: significant immune respose

Molecule: KLLQRPVAV (listed as Homo sapiens) [p210C]
killing of cells expressing the native peptide [4]: able to recognize and kill cells expressing the native peptide
killing of T2 cells pulsed with the heteroclitic peptide [4]: able to kill T2 cells pulsed with the heteroclitic peptides
immune responses in CML patients ([1]; 4 patients with chronic phase CML assayed): observed in two of the CML patients
frequency of CD8+ cells recognizing T2 pulsed with the synthetic peptide ([1]; CML patient, two rounds of stimulation): ~400 spot-forming cells (SCF) per 1×10^5 cells
recognition of the native sequence by T cells elicited with the peptide [1]: able to recognize their respective native sequences
immune response (IFN-gamma secretion, ELISPOT) [1]: most consistent and significant immune-responses

Molecule: KLGGGQYGV (listed as Homo sapiens) [V2A1]
IFN-γ production (ELISPOT) [1]: greater IFN-γ was produced following a third stimulation

Molecule: KLGGGQFGV (listed as Homo sapiens) [V2A3]
heteroclitic response (ELISPOT) [1]: stimulated heteroclitic responses

Molecule: KQSSKALQV (listed as Homo sapiens) [p210A]
immune response (IFN-gamma secretion, ELISPOT) [1]: no immune response

Molecule: YLFKQSSKV (listed as Homo sapiens) [p210E]
immune response (IFN-gamma secretion, ELISPOT) [1]: produced an immune response in some donors tested

Molecule: YLINKEEAV (listed as Homo sapiens) [b2a2 A4]
immune response as gamma-IFN secretion by CD3+ T cells [1]: significant immune respose

Molecule: YLINKEEAL (listed as Homo sapiens) [b2a2 A3]
killing of cells expressing the native peptide [4]: able to recognize and kill cells expressing the native peptide
killing of T2 cells pulsed with the heteroclitic peptide [4]: able to kill T2 cells pulsed with the heteroclitic peptides
recognition of the native sequence by T cells elicited with the peptide [1]: recognized the native sequence as well
immune response as gamma-IFN secretion by CD3+ T cells [1]: significant immune respose

Molecule: KVYEGVWKV (listed as Homo sapiens) [K2A3]
killing of T2 cells pulsed with kinase mutant sequence peptides [4]: able to kill T2 cells pulsed with specific kinase mutant sequence peptides
heteroclitic response (ELISPOT) [1]: stimulated heteroclitic responses

Molecule: IIIEFMTYV (listed as Homo sapiens) [T3A2]
killing of T2 cells pulsed with kinase mutant sequence peptides [4]: able to kill T2 cells pulsed with specific kinase mutant sequence peptides

binding result [5]: binds
Molecule: YLINKEEAL [b2a2 A3 (analogue)]

binding result [5]: binds
Molecule: YLINKEEAV [b2a2 A4 (analogue)]

binding result [5]: binds
Molecule: YLINKVEAL [b2a2 A5 (analogue)]

binding result [5]: binds
Molecule: KALQRPVAS [p210Cn native]

binding result [6]: binds
Molecule: SSKALQRPV [CMLA2 native]
